The source of these data is patent publication US20160067208A1, “ADHESION PREVENTING AGENT” (FARNEX INCORPORATED, priority 2013, published 2016).

Common to all, as to format: physicochemical
Data set [1] can be described thus: Viscosity of the compound itself (Gemini II, Malvern). Particulars: 25° C., at shear velocity of 92 1/s. The method, then: In addition, the amphipathic compound to be used for the adhesion preventing agent of the present invention has low viscosity in itself. Specifically, the amphipathic compound to be used for the adhesion preventing agent of the present invention has a viscosity of preferably 15.0 Pa·s or less, more preferably 11.0 Pa·s or less, and further preferably 6.0 Pa·s or less as measured at 25° C. in itself. The viscosity can be measured using, for example, a viscosity and viscoelasticity measuring apparatus (Gemini II, Malvern Instruments Ltd.) at 25° C.
The viscosity of each of the compounds described in the Examples 1-7 was measured using a viscosity/viscoelasticity measuring instrument (Gemini II, Malvern) at the temperature of 25° C.

A short description of data set [2]: SAXS analysis of compound/water system (liquid crystal formation). To be noted: compound/water system gel, 50% by mass in water-excess condition, room temperature (25° C.). The source says:
Whether or not a liquid crystal structure has a cubic lattice may be determined by a small-angle X-ray scattering (SAXS) method, for the purpose of confirming liquid crystal formation. First, an amphipathic compound/water system sample with a predetermined concentration can be filled into an X-ray capillary tube made of quartz, for example, and the capillary tube is sealed with an oxy-fuel burner, and subjected to SAXS assay.
Mono-O-(5,9,13-trimethyltetradeca-4,8,12-trienoyl)glycerol synthesized in Example 1 and pure water were introduced into a mixing device at the concentration of 50% by mass of mono-O-(5,9,13-trimethyltetradeca-4,8,12-trienoyl)glycerol (in water-excess condition), and they were mixed at room temperature (25° C.) and left for 24 hours to obtain a homogeneous mixture. Then the separated water was removed. Thus, a sample of mono-O-(5,9,13-trimethyltetradeca-4,8,12-trienoyl)glycerol/water system was obtained as a white turbid to colorless transparent gel composition in appearance (it was referred to below as the gel sample).
Subsequently, the gel sample was analyzed by small-angle x-ray scattering (SAXS). The NANO-Viewer nano-scale X-ray structure analysis equipment (Rigaku) was used for SAXS analysis, which was performed by X-ray irradiation at room temperature (25° C.), 40 kV, 50 mA, wavelength λ=0.1542 nm (Cu-Kα).
Each of the compounds synthesized in Example 32, 33, 43, 45, 49, and 50 and water were homogeneously mixed in accordance with the same procedure as in Example 9 to obtain a sample of each compound/water system being a gel in appearance. SAXS analysis of these gel samples was performed in the same manner as in Example 9. […]

Data set [3] is described as follows: Shear viscosity of liquid crystal gels. Particulars: gel prepared by addition of water, 25° C. The method, then:
The viscosity was measured for the gels prepared by addition of water to the compounds synthesized in Examples 1, 4, and 5. Specifically, for the gel samples obtained by mixing homogeneously according to the same procedure as in Example 9, the shear viscosity was measured at a temperature of 25° C., using a viscosity and viscoelasticity measuring apparatus (Gemini II, Malvern Instruments Ltd.; cone plate φ25, cone angle 1°).
The viscosity was measured for the gels prepared by addition of water to the compounds synthesized in Examples 45 and 50, and C17 glycerin ester synthesized in Example 13. Specifically, for the gel samples obtained by mixing homogeneously according to the same procedure as in Example 9, the shear viscosity was measured at a temperature of 25° C., using a viscosity and viscoelasticity measuring apparatus (Gemini II, Malvern Instruments Ltd.; cone plate φ25, cone angle 1°).

Data set [4] in a line: Preparability and temperature stability of comparative formulations. Particulars: 0.65 cs dimethicone (GMO: 1.00 g in 2.33 g). The method, then:
2.33 g of 0.65 cs dimethicone (Dow Corning Q7-9180 Silocon Fluid 0.65 CST) was added to 1.00 g of GMO (Rikemal XO-100L, Riken Vitamin Co., Ltd.), followed by stirring to prepare a solution.
Additionally, an o/w dispersion of GMO having the same composition as test sample 18 as described above was prepared, and stored at a refrigerated temperature (7° C.). […] Thus, it is shown that the o/w dispersion of GMO has low temperature stability.
In accordance with Example 14 described in JP Patent Publication No. 2008-528463A, GDO (4.30 g), SPC (Lecinol S-10E, 2.90 g), P80 (1.80 g), and ethanol (1.00 g) were mixed to prepare a liquid crystal precursor composition (GDO/SPC/P80/EtOH=43:29:18:10).
6 mL of distilled water was added to 1.388 g of the liquid crystal precursor composition, followed by stirring for 1 hour to prepare test sample 6 (GDO/SPC/P80/EtOH/water=[…]:81.2).
Thus, it was impossible to prepare a lipid/dimethicone preparation, unlike test samples 13, 14, 21 and 23. […] It was considered that this was due to high viscosity of the sample.

For `CC(C)=CCC/C(C)=C/CC/C(C)=C/CCC(C)=CCCC(=O)OCC(O)C(O)CO` (stereo not shown) [Example 5, mono-O-(5,9,13,17-tetramethyloctadeca-4,8,12,16-tetraenoyl)erythritol], the Viscosity in data set [1] was 5.8 Pa·s; in data set [3] (shear velocity 12 1/s) it was 333 Pas · sec; in data set [3] (shear velocity 100.8 1/s) it was 17 Pas · sec. The “liquid crystal structure (SAXS peak value ratio)” value in data set [2] was “cubic liquid crystal that belongs to the crystallographic space group Pn3m”.
In the case of `CC(C)=CCC/C(C)=C/CC/C(C)=C/CCC(C)=CCOCC(O)C(O)CO` (stereo not shown) [Example 45, mono-O-(3,7,11,15-tetramethylhexadeca-2,6,10,14-tetraenyl)erythritol], the figures for the Viscosity in data set [1], in data set [3] (shear velocity 10 1/s) and in data set [3] (shear velocity 105 1/s) were 1.9 Pa·s, 314 Pas · sec and 4.3 Pas · sec, respectively. Also, the “liquid crystal structure (SAXS peak value ratio)” value in data set [2] is “cubic liquid crystals that belong to the crystallographic space group Pn3m”.
`CC(C)=CCC/C(C)=C/CC/C(C)=C/CCC(C)=CCCCOCC(CO)(CO)CO` [Example 50, mono-O-(5,9,13,17-tetramethyloctadeca-4,8,12,16-tetraenyl)pentaerythritol]: the Viscosity in data set [1] was 0.78 Pa·s; in data set [3] (shear velocity 10 1/s), 81 Pas · sec; in data set [3] (shear velocity 105 1/s), 14 Pas · sec. The “liquid crystal structure (SAXS peak value ratio)” value in data set [2] is listed as “reverse hexagonal liquid crystals”.
Turning to `CCCCCCCC/C=C\CCCCCCCC(=O)OCC(O)CO` (stereo not shown) [GMO, Glyceryl Monooleate], the “state / solubility in dimethicone” value in data set [4] is listed as “crystals were precipitated”.
